Test results: patent publication US12318452B2, “Degraders of WEE1 kinase” (DANA-FARBER CANCER INSTITUTE, INC., priority 2018, dated 2025)
Several values for one entry are separate records, joined by “and”; a condition that tells them apart may be missing. Identical values can stand only once.

Legend:
[1] = system: MOLT4 cells (parental, wild type); assay: CellTiter-Glo cell viability, 72 hours; assay type: cell-based
Experimental: The indicated cell lines were plated in flat bottom 384-well plates (Corning® cat #3570). MOLT4 cells were plated at a density of 3,000 cells per well in 50 μL media, while OVCAR8, COV362, and Kuramochi cells were plated at a density of 750 cells per well in 50 μL media. Cells were treated the next day (except for MOLT4 cells, which were treated the same day as plating) with 0.1 μL of the indicated compounds in a four-fold dilution series using the Janus pinner. Cells were incubated with compounds for 72 hours at 37° C. 5% CO2. Anti-proliferative effects were then assessed by CellTiter-Glo® Luminescent Cell Viability Assay (Promega™ cat #G7570) according to the manufacturer's standards, measuring luminescence using an EnVision® plate-reader. IC50 values were determined using a non-linear regression curve fit in GraphPad Prism 8. N=4 biological replicates were used for each treatment condition.
MOLT4 cells were plated in a 384-well plate at 5,000 cells per well in 50 μL media (RPMI+10% FBS+1% Penn/Strep) and treated with 0.1 μL of the candidate compounds in four-fold dilution series using the Janus pinner. Cells were incubated with compounds for 72 hours at 37° C. 5% CO2. Anti-proliferative effects of these compounds were assessed 72 hours after compound addition using CellTiter-Glo® (Promega, cat #G7571). All proliferation assays were performed in biological quadruplicate. […] Effects upon cell viability for compound 13 in the MOLT4 WT cells are therefore likely driven in part by Wee1 inhibition, and in part by CRBN-mediated Wee1 degradation. […] Degradation of Wee1 with compound 21 was mediated by VHL.

[2] = system: MOLT4 cells; assay: Cell cycle analysis by propidium iodide staining; assay type: cell-based
Experimental: MOLT4 cells were plated at 1.5 million cells per well in a 6-well plate, with 3 mL of media per well. Immediately after plating, cells were treated with the indicated concentrations of the indicated compound. At the indicated time points, cells were collected by transferring each well to a 15 mL conical, centrifuging (1000 rpm for 3 min), and then washing the cell pellet 3× with cold PBS. Cell pellets were then fixed with 1 mL cold 80% ethanol in PBS at 4° C. overnight. The cell pellets were then washed by adding 1 mL of PBS and then centrifuging (1500 rpm for 5 minutes), followed by aspiration of the PBS/ethanol mix. Cells were resuspended in cell cycle staining solution (100 μg/mL of RNAse A (Roche, 10109169001) and 50 μg/mL propidium iodide (Life Technologies™, P1304MP), diluted in PBS, and incubated for 10 minutes at room temperature. Cell cycle data was acquired by flow cytometry on a Guava® easyCyte™ flow cytometer (Millipore™) using the InCyte™ software. Data was analyzed using FlowJo®. N=3 biological replicates were used for each treatment condition.

[3] = molecular target: PLK1 (Homo sapiens, UniProt P53350); assay: Z′-LYTE kinase activity assay for PLK1; assay type: biochemical; design: purchased Life Technologies (Invitrogen) commercial assay service; settings: Km ATP, average of two replicates ± SD
Experimental: (§1) LanthaScreen™ assays were conducted for Wee1 in a 10-point dose response as performed in the commercial assay service by Life Technologies™. Z′-LYTE™ assays were conducted for PLK1 as performed in the commercial assay service by Life Technologies™ in a 10-point dose response using Km ATP concentrations.
The selectivity of Wee1 degradation was then assessed by performing multiplexed mass spectrometry (MS)-based proteomics in MOLT4 cells treated with 100 nM of compound 13 for 2 hours (Donovan et al., Elife 7:e38430 (2018)).

[4] = system: pCDK1 Y15; assay: Downstream signalling immunoblot in MOLT4 cells (pCDK1 Y15, cleaved PARP, γH2Ax); assay type: cell-based; settings: 24-hr, MOLT4 cells
Experimental: (§2) Whole cell lysates for immunoblotting were prepared by pelleting cells from each cell line at 4° C. (300 g) for 5 minutes. The resulting cell pellets were washed 1× with ice-cold PBS and then resuspended in RIPA lysis buffer (Sigma, cat #R0278) supplemented with protease and phosphatase inhibitor tablets (Roche cat #4906845001). Lysates were clarified at 14,000 rpm for 15 minutes at 4° C. prior to quantification by BCA assay (Pierce™, cat #23225). Whole cell lysates were loaded into Bolt 4-12% Bis-Tris Gels (Thermo Fisher, cat #NW04120BOX) and separated by electrophoreses at 95 V for 1.5 hours. The gels were transferred to a nitrocellulose membrane using the iBlot® Gel Transfer at P3 for 7 minutes (Thermo Fisher, cat #IB23001) and then blocked for 1 hour at room temperature in Odyssey® blocking buffer (LICOR® Biosciences, cat #927-50010). Membranes were probed using antibodies against the relevant proteins at 4° C. overnight in 20% Odyssey® Blocking Buffer in 1×TBST. Membranes were then washed three times with 1×TBST (at least 5 minutes per wash) followed by incubation with the IRDye® goat anti-mouse (LICOR®, cat #926-32210) or goat anti-rabbit (LICOR®, cat #926-32211) secondary antibody (diluted 1:10,000) in 20% Odyssey® Blocking Buffer in 1×TBST for 1 hour at room temperature. After three washes with 1×TBST (at least 5 minutes per wash), the immunoblots were visualized using the ODYSSEY® Infrared Imaging System (LICOR®).
(§3) MOLT4 cells were plated at 1.5 million cells per well in a 6-well plate, with 3 mL of media per well. Cells were then immediately treated with the indicated concentration of the indicated compound and incubated for the indicated amount of time. Cells were collected by transferring each well to a 15 mL conical, centrifuging (1000 rpm for 3 min), then washing the cell pellet 2× with cold PBS. Each cell pellet was then lysed in 100 μL of RIPA lysis buffer (+protease/phosphatase inhibitors). Samples were normalized and prepped in 4×LDS+10% β-mercaptoethanol and boiled for 5 min at 95° C. Lysates were probed for specified proteins by western blotting using the Bolt® system (Life Technologies™)
The effects of targeted Wee1 degradation on the cell cycle were evaluated. Wee1 is required for the temporal regulation of CDK1 at the G2/M cell-cycle checkpoint, and Wee1 loss therefore […] via activation of CDK1. Following loss of Wee1 activity, cells are expected to enter mitosis before completing DNA repair, ultimately resulting in excessive unrepaired DNA damage, mitotic catastrophe, and apoptosis (Beck et al., Mol. Cell Biol. 32:4226-4236 (2012)).

[5] = molecular target: T1, Wee1 (Homo sapiens, UniProt P30291); assay: Cellular degradation of Wee1 by immunoblot, 6-hour treatment of MOLT4 cells; assay type: cell-based; design: endogenous in cells; host or cells: MOLT4 (wild type; CRBN-/- as control); settings: MOLT-4, 1 μM, MOLT4 cells, approximated by immunoblot, read-out: Extent of Degradation of Wee1
Experimental: General Protocol: HT-29, MOLT4 wild type (WT) or CRBN^-/- cells were plated in a 6 well plate and treated for 6 hours with the indicated concentrations of the inventive compounds and control. HT-29 cells were cultured in McCoy's Media supplemented with 10% FBS and 1% Penicillin/Streptomycin. MOLT4 WT and CRBN^-/- cells were cultured in Roswell Park Memorial Institute (RPMI) medium supplemented with 10% FBS and 1% Penicillin/Streptomycin. Mycoplasma testing was performed every month and all lines were negative. Immunoblotting: Cells were washed with phosphate-buffered saline (PBS) and then lysed using radioimmunoprecipitation assay (RIPA) buffer supplemented with protease and phosphatase inhibitor cocktail (Roche) on ice for 15 minutes. The lysates were centrifuged at 14,000 rpm for 15 minutes at 4° C. and protein was quantified by bicinchoninic acid (BCA) assay (PierceTM). Primary antibodies used include: Wee1 ([…]) (Cell Signaling Technology®, 13084S), polo-like kinase 1 (PLK1) (Thermo Fisher Scientific, 37-7000), phosphor-cdc2 (Y15) (10A11) (Cell Signaling Technology®, […]), phospho-histone H3 ([…]) (Cell Signaling Technology®, […]), Ikaros ([…]) (Cell Signaling Technology®, 14859S), Aiolos ([…]) (Cell Signaling Technology®, 15103), casein kinase 1 alpha (Abcam®, 108296), β-actin (Cell Signaling Technology®, 8H10D10). FIG. 2A is an immunoblot showing that compound 13 degraded Wee1 after a 6-hour treatment in MOLT4 cells, and induced the downstream changes expected from Wee1 loss-including a decrease in phosphorylated cyclin-dependent kinase 1 (pCDK1) (Y15) and an increase in pH 3. […] Degradation of Wee1 by compound 13 was rescued in MOLT4 CRBN^-/- cells. MOLT4 WT and CRBN^-/- cells were plated in a 6-well plate at 2.25 million cells per well in 3 mL media (RPMI+10% FBS+1% Penn/Strep). After treatment with the indicated concentrations of candidate compounds, cells were incubated for 6 hours at 37° C. 5% CO2. To harvest, the cells were washed 1× with cold PBS, then collected by centrifugation. Cell pellets were lysed in RIPA buffer with protease and phosphatase inhibitors (Roche). Lysates were clarified by centrifugation, and protein concentrations were normalized using a BCA assay (Thermo ScientificTM). The samples were diluted with 4×LDS+10% β-mercaptoethanol, and were boiled at 95° C. for 5 minutes. Proteins of interest were then assessed by western blotting. […] The experimental protocol was the same as in Example 28.

[6] = molecular target: T1, Wee1; assay: Wee1 degradation immunoblot in MOLT4 cells, 5-hr dose response and time course; assay type: cell-based; design: endogenous in cells; host or cells: MOLT4 (wild type; CRBN-/- as control); settings: MOLT4 cells
Experimental: as §2, §3
To confirm that compound 13-mediated Wee1 degradation is CRBN dependent (FIG. 1D), Wee1 degradation profiles in parental versus CRBN^−/− MOLT4 cells were compared. In parental MOLT4 cells, compound 13 induced potent Wee1 degradation after 5 hours, with maximal degradation observed at 100 nM and a “hook effect” apparent at the top concentration of 10 μM, where compound 13:CRBN and compound 13-Wee1 binary complexes inhibit the formation of a productive ternary complex (Toure and Crews, Angew. Chem. 55:1966-1973 (2016)).
To evaluate the kinetics of Wee1 degradation, a time course study was performed in MOLT4 cells using 100 nM compound 13. Degradation occurred rapidly, with over 50% degradation achieved within 30 min, and complete degradation reached by 3 hr (FIG. 4C).

[7] = molecular target: T1, Wee1; assay: LanthaScreen FRET-based biochemical binding assay for Wee1; settings: LanthaScreen Binding activity assay; average of two replicates ± SD
Experimental: as §1

T1 sequence (P30291 whole entry): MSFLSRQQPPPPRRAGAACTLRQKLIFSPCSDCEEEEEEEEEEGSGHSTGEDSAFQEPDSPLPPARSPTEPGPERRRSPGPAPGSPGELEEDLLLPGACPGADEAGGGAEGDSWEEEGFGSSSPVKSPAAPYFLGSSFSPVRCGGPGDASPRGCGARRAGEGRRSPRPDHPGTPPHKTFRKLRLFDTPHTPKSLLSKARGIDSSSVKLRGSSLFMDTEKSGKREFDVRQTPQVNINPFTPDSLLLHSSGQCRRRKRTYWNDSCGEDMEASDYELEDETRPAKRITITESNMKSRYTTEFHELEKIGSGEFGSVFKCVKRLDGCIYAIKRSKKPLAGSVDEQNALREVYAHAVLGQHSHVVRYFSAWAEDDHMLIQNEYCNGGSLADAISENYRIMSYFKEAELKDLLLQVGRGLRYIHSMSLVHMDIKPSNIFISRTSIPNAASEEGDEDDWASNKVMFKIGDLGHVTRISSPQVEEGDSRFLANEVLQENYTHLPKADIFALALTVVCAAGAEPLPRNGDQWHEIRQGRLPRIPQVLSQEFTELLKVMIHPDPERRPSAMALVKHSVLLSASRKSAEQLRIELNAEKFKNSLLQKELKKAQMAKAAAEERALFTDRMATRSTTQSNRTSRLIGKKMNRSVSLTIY
Sequence of PLK1 (P53350 whole entry): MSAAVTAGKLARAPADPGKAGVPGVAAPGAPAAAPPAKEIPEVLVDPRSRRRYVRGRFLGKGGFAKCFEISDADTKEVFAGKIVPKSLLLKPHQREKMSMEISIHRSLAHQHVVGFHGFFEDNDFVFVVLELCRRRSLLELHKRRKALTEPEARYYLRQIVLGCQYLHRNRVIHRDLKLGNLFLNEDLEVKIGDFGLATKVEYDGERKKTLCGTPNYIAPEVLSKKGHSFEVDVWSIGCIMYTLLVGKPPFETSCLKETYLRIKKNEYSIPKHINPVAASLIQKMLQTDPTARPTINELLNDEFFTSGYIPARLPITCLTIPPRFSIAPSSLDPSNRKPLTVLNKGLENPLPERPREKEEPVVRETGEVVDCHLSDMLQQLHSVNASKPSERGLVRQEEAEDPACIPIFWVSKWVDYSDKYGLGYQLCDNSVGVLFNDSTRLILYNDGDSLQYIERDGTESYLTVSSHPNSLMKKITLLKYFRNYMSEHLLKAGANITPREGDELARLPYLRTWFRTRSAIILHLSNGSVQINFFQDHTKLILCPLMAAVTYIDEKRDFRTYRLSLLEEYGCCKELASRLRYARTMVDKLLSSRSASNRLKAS

SMILES: C=CCn1c(=O)c2cnc(Nc3ccc(N4CCN(C)CC4)cc3)nc2n1-c1cccc(C(C)(C)O)n1 [AZD1775, 2-allyl-1-[6-(1-hydroxy-1-methylethyl)pyridin-2-yl]-6-{[4-(4-methylpipera-zin-1-yl)phenyl]amino}-1,2-dihydro-3H-pyrazolo[3,4-d]pyrimidin-3-one, reference compound]
- IC50 ([1]; Homo sapiens, MOLT-4, 72 hours, read-out: Antiproliferative IC50): 800 nM
- Effect on the cell cycle ([2]; 100 nM, 24-hr, MOLT4 cells): did not appreciably affect the cell cycle
- Dose needed to elicit the same cell cycle changes as 100 nM of compound 13 ([2]; 24-hr, MOLT4 cells): 1 µM
- Cell cycle effects in CRBN−/− cells ([2]; CRBN−/− MOLT4 cells, 24 hours): unchanged
- IC50 [3]: 212 ± 12 nM
- Downstream signalling changes (pCDK1 Y15, PARP cleavage, γH2Ax) ([4]; 100 nM): did not produce any noticeable changes
- Treatment necessary to induce the same downstream changes as 100 nM of compound 13 [4]: 1 µM

SMILES: C=CCn1c(=O)c2cnc(Nc3ccc(N4CCN(CCCNC(=O)CCOCCOCCNc5cccc6c5C(=O)N(C5CCC(=O)NC5=O)C6=O)CC4)cc3)nc2n1-c1cccc(C(C)(C)O)n1 (stereo not drawn) [Compound 7, N-(3-(4-(4-((2-allyl-1-(6-(2-hydroxypropan-2-yl)pyridin-2-yl)-3-oxo-2,3-dihydro-1H-pyrazolo[3,4-d]pyrimidin-6-yl)amino)phenyl)piperazin-1-yl)propyl)-3-(2-(2-((2-(2,6-dioxopiperidin-3-yl)-1,3-dioxoisoindolin-4-yl)amino)ethoxy)ethoxy)propanamide]
- percent Wee1 degradation at 1 µM [5]: > 50%
- Concentration required to achieve maximal Wee1 degradation ([6]; 5-hr treatment): 1 µM
- IC50 [7]: 1 to 10 nM and 7.28 nM
- IC50 [3]: 118 ± 6 nM

SMILES: C=CCn1c(=O)c2cnc(Nc3ccc(N4CCN(CCCCCCNc5cccc6c5C(=O)N(C5CCC(=O)NC5=O)C6=O)CC4)cc3)nc2n1-c1cccc(C(C)(C)O)n1 (stereo not drawn) [Compound 11, 4-((6-(4-(4-((2-allyl-1-(6-(2-hydroxypropan-2-yl)pyridin-2-yl)-3-oxo-2,3-dihydro-1H-pyrazolo[3,4-d]pyrimidin-6-yl)amino)phenyl)piperazin-1-yl)hexyl)amino)-2-(2,6-dioxopiperidin-3-yl)isoindoline-1,3-dione]
- percent Wee1 degradation at 1 µM [5]: 25 to 50%
- Wee1 degradation ([6]; 5-hr exposure, 100 nM-10 μM): degraded Wee1
- IC50 [7]: 4.46 ± 0.95 nM
- IC50 [3]: 23.6 ± 4 nM

SMILES: C=CCn1c(=O)c2cnc(Nc3ccc(N4CCN(CCOCCOCCOCCNc5cccc6c5C(=O)N(C5CCC(=O)NC5=O)C6=O)CC4)cc3)nc2n1-c1cccc(C(C)(C)O)n1 (stereo not drawn) [Compound 12, 4-((2-(2-(2-(2-(4-(4-((2-allyl-1-(6-(2-hydroxypropan-2-yl)pyridin-2-yl)-3-oxo-2,3-dihydro-1H-pyrazolo[3,4-d]pyrimidin-6-yl)amino)phenyl)piperazin-1-yl)ethoxy)ethoxy)ethoxy)ethyl)amino)-2-(2,6-dioxopiperidin-3-yl)isoindoline-1,3-dione]
- percent Wee1 degradation at 1 µM [5]: > 50%
- Concentration giving maximal (sufficient) Wee1 degradation ([6]; 5-hr treatment): 100 nM
- IC50 [7]: 1 to 10 nM and 3.18 nM
- IC50 [3]: 285 ± 14 nM

SMILES: Nc1cccc2c1CN(C1CCC(=O)NC1=O)C2=O (stereo not drawn) [Lenalidomide, reference compound]
- Antiproliferative activity ([1]; 72-hr): no detectable antiproliferative activity
- Effect on the cell cycle ([2]; 1 μM, 24 hours, MOLT4 cells): did not induce any significant changes
